{"source": "patent US20210290816A1", "about": "“LIQUID EMBOLICS” (MicroVention, Inc., priority 2020, published 2021)", "key": {"[1]": {"experiment": "In vitro elution of carmustine from PHIL® solution", "type": "physicochemical", "conditions": "50 mg in 1 mL 25 wt % PHIL®, 99 mL distilled water, room temperature", "procedure": "Fifty mg of carmustine are dissolved in 1 mL of 25 wt % PHIL® solution, which includes triiodophenol-(lactide-co-glycolide) acrylate and hydroxyethyl methacrylate in dimethyl sulfoxide. The 1 mL of 25 wt % PHIL®/carmustine solution is precipitated in 99 mL of a dissolution medium, including distilled water at room temperature. At 2, 5, 9, 14, 20, 27, 35, 44, 54, 65 and 90 minutes, 1 mL of the supernatant is pipetted out and placed in a HPLC vial.\nThe concentration of carmustine in each sample is determined using an Agilent 1100 HPLC system. The chromatographic analysis is performed with a Primesep 100 column (3.2 mm×50 mm, 3 μm). The mobile phase includes 10% methanol and 90% 10 mM potassium phosphate buffer solution pH 3 with 5% acetonitrile and 7.2 mM triethylamine delivered at 1 mL/min. The injection volume is 3 μL and the wavelength of the ultraviolet detector is 230 nm. The calibration curve is prepared from 10 to 1000 ppm of carmustine. The amount of carmustine released and relative percentage are calculated from the concentration data."}, "[2]": {"conditions": "50 mg in 1 mL 25 wt % PHIL®, 99 mL distilled water, room temperature", "procedure": "Fifty mg of cyclophosphamide are dissolved in 1 mL of 25 wt % PHIL® solution, which includes triiodophenol-(lactide-co-glycolide) acrylate and hydroxyethyl methacrylate in dimethyl sulfoxide. The 1 mL of 25 wt % PHIL®/cyclophosphamide solution is precipitated in 99 mL of a dissolution medium, including distilled water at room temperature. At 2, 5, 9, 14, 20, 27, 35, 44, 54, 65 and 90 minutes, 1 mL of the supernatant is pipetted out and placed in a HPLC vial.\nThe concentration of cyclophosphamide in each sample is determined using an Agilent 1100 HPLC system. The chromatographic analysis is performed with a Primesep 100 column (3.2 mm×50 mm, 3 μm). The mobile phase includes 5% acetonitrile and 95% HPLC water with 5% acetonitrile delivered at 1 mL/min. The injection volume is 25 μL and the wavelength of the ultraviolet detector is 197 nm. The calibration curve is prepared from 10 to 1000 ppm of cyclophosphamide. The amount of cyclophosphamide released and relative percentage are calculated from the concentration data."}, "[3]": {"experiment": "In vitro elution of doxorubicin from PHIL® solution", "type": "physicochemical", "conditions": "50 mg doxorubicin hydrochloride in 1 mL 25 wt % PHIL®, 99 mL 10 mM potassium phosphate buffer pH 4.0, room temperature", "procedure": "Fifty mg of doxorubicin hydrochloride are dissolved in 1 mL of 25 wt % PHIL® solution, which includes triiodophenol-(lactide-co-glycolide) acrylate and hydroxyethyl methacrylate in dimethyl sulfoxide. The 1 mL of 25 wt % PHIL®/doxorubicin solution is precipitated in 99 mL of a dissolution medium, including 10 mM potassium phosphate buffer solution pH 4.0 at room temperature. At 2, 5, 9, 14, 20, 27, 35, 44, 54, 65 and 90 minutes, 1 mL of the supernatant is pipetted out and placed in a HPLC vial.\nThe concentration of doxorubicin in each sample is determined using an Agilent 1100 HPLC system. The chromatographic analysis is performed with an Agilent Extended-C18 column (4.6 mm×50 mm, 3.5 μm). The mobile phase includes 18% acetonitrile and 82% 10 mM potassium phosphate buffer solution pH 3 with 5% acetonitrile and 7.2 mM triethylamine delivered at 1 mL/min. The injection volume is 3 μL and the wavelength of the ultraviolet detector is 234 nm. The calibration curve is prepared from 10 to 1000 ppm of doxorubicin. The amount of doxorubicin released and relative percentage are calculated from the concentration data."}, "[4]": {"experiment": "In vitro elution of gemcitabine from PHIL® solution", "type": "physicochemical", "conditions": "50 mg in 1 mL 25 wt % PHIL®, 99 mL PBS, room temperature", "procedure": "The chromatographic analysis is performed with an Agilent Extended-C18 column (4.6 mm×50 mm, 3.5 μm). […] The injection volume is 3 μL and the wavelength of the ultraviolet detector is 275 nm."}, "[5]": {"experiment": "In vitro elution of irinotecan from PHIL® solution", "type": "physicochemical", "conditions": "50 mg irinotecan hydrochloride in 1 mL 25 wt % PHIL®, 99 mL 10 mM potassium phosphate buffer pH 4.0, room temperature", "procedure": "The chromatographic analysis is performed with an Agilent Extended-C18 column (4.6 mm×50 mm, 3.5 μm). The mobile phase includes of 18% acetonitrile and 82% 10 mM potassium phosphate buffer solution pH 3 with 5% acetonitrile and 7.2 mM triethylamine delivered at 1 mL/min. The injection volume is 2 μL and the wavelength of the ultraviolet detector is 223 nm."}, "Canine Liver": {"tested_on": "Canine Liver", "experiment": "In vivo evaluation of PHIL LV liquid embolic with irinotecan in canine liver", "experimental": "A canine is anesthetized and a 6 Fr sheath is inserted into the femoral artery via a cutdown. A 6 Fr Glidecath is advanced retrograde into the celiac trunk and further into the hepatic artery. Following angiography, a Scepter balloon (4 mm×10 mm) is advanced through the Glidecath and into a branch of the hepatic artery. […] Blood is collected at 5, 15, 30, 60, and 120 minutes post-embolization for irinotecan quantification."}, "[6]": {"experiment": "In vitro elution of oxaliplatin from PHIL® solution (ICP-MS platinum)", "type": "physicochemical", "conditions": "50 mg in 1 mL 25 wt % PHIL®, 50 mL PBS replaced at each time point, room temperature", "procedure": "The remaining supernatant is poured out and the precipitates are mixed with a fresh 50 mL of the dissolution medium at room temperature.\nSamples are prepared for ICP-MS analysis to measure the platinum concentration in the supernatant by mixing a sample portion (1 mL) with 4 mL of 2% nitric acid (5-fold dilution) or a sample portion (2.5 mL) with 0.05 mL of 2% nitric acid (undiluted). The calibration curve is prepared from 0.5 to 100 ppm of platinum."}, "[7]": {"experiment": "In vitro elution of paclitaxel from PHIL® solution", "type": "physicochemical", "conditions": "50 mg in 1 mL 25 wt % PHIL®, 199 mL 45:55 acetonitrile/10 mM potassium phosphate buffer pH 4.5, room temperature", "procedure": "Fifty mg of paclitaxel are dissolved in 1 mL of 25 wt % PHIL® solution, which includes triiodophenol-(lactide-co-glycolide) acrylate and hydroxyethyl methacrylate in dimethyl sulfoxide. The 1 mL of 25 wt % PHIL®/Paclitaxel solution is precipitated in 199 mL of a dissolution medium, consisting of 45:55 acetonitrile/10 mM potassium phosphate buffer solution pH 4.5 at room temperature. At 2, 5, 9, 14, 20, 27, 35, 44, 54, 65 and 90 minutes, 1 mL of the supernatant is pipetted out and placed in a HPLC vial. The concentration of paclitaxel in each sample is determined using an Agilent 1100 HPLC system. The chromatographic analysis is performed with an Agilent Extended-C18 column (4.6 mm×50 mm, 3.5 μm). The mobile phase includes 50% acetonitrile and 50% 5% acetonitrile in water delivered at 1 mL/min. The injection volume is 10 μL and the wavelength of the ultraviolet detector was 227 nm. The calibration curve is prepared from 5 to 500 ppm of paclitaxel. The amount of paclitaxel released and relative percentage are calculated from the concentration data."}, "[8]": {"experiment": "In vitro elution of sorafenib from PHIL® solution", "type": "physicochemical", "conditions": "50 mg in 1 mL 25 wt % PHIL®, 999 mL 70:30 acetonitrile/10 mM potassium phosphate buffer pH 4.3, room temperature", "procedure": "The 1 mL of 25 wt % PHIL®/sorafenib solution is precipitated in 999 mL of a dissolution medium, including 70:30 acetonitrile/10 mM potassium phosphate buffer solution pH 4.3 at room temperature.\nThe chromatographic analysis is performed with an Agilent Extended-C18 column (4.6 mm×50 mm, 3.5 μm). The mobile phase includes 50% acetonitrile and 50% 10 mM potassium phosphate buffer solution pH 3 with 5% acetonitrile and 7.2 mM triethylamine delivered at 1 mL/min. The injection volume is 3 μL and the wavelength of the ultraviolet detector is 263 nm. The calibration curve is prepared from 1 to 100 ppm of sorafenib."}, "[9]": {"experiment": "In vitro elution of sunitinib from PHIL® solution", "type": "physicochemical", "conditions": "50 mg sunitinib malate in 1 mL 25 wt % PHIL®, 999 mL phosphate buffered saline", "procedure": "The 1 mL of 25 wt % PHIL®/sunitinib solution is precipitated in 999 mL of a dissolution medium, including phosphate buffered saline.\nThe chromatographic analysis is performed with an Agilent Extended-C18 column (4.6 mm×50 mm, 3.5 μm). The mobile phase includes 22% acetonitrile and 78% 10 mM potassium phosphate buffer solution pH 3 with 5% acetonitrile and 7.2 mM triethylamine delivered at 1 mL/min. The injection volume is 3 μL and the wavelength of the ultraviolet detector is 429 nm. The calibration curve is prepared from 1 to 100 ppm of sunitinib."}}, "note": "Counter-ions that a name gives are not always drawn."}
{"smiles": "O=NN(CCCl)C(=O)NCCCl", "note": "[carmustine]", "values": [{"measurement": "total amount of carmustine eluted", "setting": "[1]; first 90 minutes", "value": "26 mg per 1 mL of PHIL®"}, {"measurement": "sharp increase of carmustine eluted", "setting": "[1]; within the first 35 minutes", "value": 21, "unit": "mg"}]}
{"smiles": "O=P1(N(CCCl)CCCl)NCCCO1", "note": "(centres unmarked) [cyclophosphamide]", "values": [{"measurement": "total amount of cyclophosphamide eluted", "setting": "[2]; first 90 minutes", "value": "38 mg per 1 mL of PHIL®"}, {"measurement": "sharp increase of cyclophosphamide eluted", "setting": "[2]; within the first 35 minutes", "value": 35, "unit": "mg"}]}
{"smiles": "COc1cccc2c1C(=O)c1c(O)c3c(c(O)c1C2=O)C[C@@](O)(C(=O)CO)C[C@@H]3O[C@H]1C[C@H](N)[C@H](O)[C@H](C)O1", "note": "[doxorubicin, doxorubicin hydrochloride]", "values": [{"measurement": "total amount of doxorubicin eluted", "setting": "[3]; first 90 minutes", "value": "38 mg per 1 mL of PHIL®"}, {"measurement": "sharp increase of doxorubicin eluted", "setting": "[3]; within the first 14 minutes", "value": 29, "unit": "mg"}]}
{"smiles": "Nc1ccn([C@@H]2O[C@H](CO)[C@@H](O)C2(F)F)c(=O)n1", "note": "[gemcitabine]", "values": [{"measurement": "total amount of gemcitabine eluted", "setting": "[4]; first 90 minutes", "value": "43 mg per 1 mL of PHIL®"}, {"measurement": "sharp increase of gemcitabine eluted", "setting": "[4]; within the first 9 minutes", "value": 34, "unit": "mg"}]}
{"smiles": "CCc1c2c(nc3ccc(OC(=O)N4CCC(N5CCCCC5)CC4)cc13)-c1cc3c(c(=O)n1C2)COC(=O)[C@]3(O)CC", "note": "[irinotecan, irinotecan hydrochloride]", "values": [{"measurement": "total amount of irinotecan eluted", "setting": "[5]; first 90 minutes", "value": "31 mg per 1 mL of PHIL®"}, {"measurement": "sharp increase of irinotecan eluted", "setting": "[5]; within the first 9 minutes", "value": 24, "unit": "mg"}, {"measurement": "irinotecan in the blood, rapid rise to", "setting": "Canine Liver; 1.5 mL PHIL LV loaded with 75 mg irinotecan into hepatic artery branch, blood 5-120 minutes post-embolization", "value": "about 300 ppb"}, {"measurement": "tapering of irinotecan in the blood back to baseline", "setting": "Canine Liver; 1.5 mL PHIL LV loaded with 75 mg irinotecan, blood collected to 120 minutes", "value": "beyond the timescale of the experiment"}]}
{"smiles": "O=C1[O][Pt]2([NH][C@@H]3CCCC[C@H]3[NH]2)[O]C1=O", "note": "[oxaliplatin]", "values": [{"measurement": "total amount of oxaliplatin eluted", "setting": "[6]; first 80 minutes", "value": "41 mg per 1 mL of PHIL®"}, {"measurement": "sharp increase of oxaliplatin eluted", "setting": "[6]; within the first 15 minutes", "value": 37, "unit": "mg"}]}
{"smiles": "CC(=O)O[C@H]1C(=O)[C@@]2(C)[C@H]([C@H](OC(=O)c3ccccc3)[C@]3(O)C[C@H](OC(=O)[C@H](O)[C@@H](NC(=O)c4ccccc4)c4ccccc4)C(C)=C1C3(C)C)[C@]1(OC(C)=O)CO[C@@H]1C[C@@H]2O", "note": "[paclitaxel]", "values": [{"measurement": "total amount of paclitaxel eluted", "setting": "[7]; first 90 minutes", "value": "38 mg per 1 mL of PHIL®"}, {"measurement": "sharp increase of paclitaxel eluted", "setting": "[7]; within the first 9 minutes", "value": 30, "unit": "mg"}]}
{"smiles": "CNC(=O)c1cc(Oc2ccc(NC(=O)Nc3ccc(Cl)c(C(F)(F)F)c3)cc2)ccn1", "note": "[sorafenib]", "values": [{"measurement": "total amount of sorafenib eluted", "setting": "[8]; first 90 minutes", "value": "42 mg per 1 mL of PHIL®"}, {"measurement": "sharp increase of sorafenib eluted", "setting": "[8]; within the first 2 minutes", "value": 38, "unit": "mg"}]}
{"smiles": "CCN(CC)CCNC(=O)c1c(C)[nH]c(/C=C2\\C(=O)Nc3ccc(F)cc32)c1C", "note": "[sunitinib, sunitinib malate]", "values": [{"measurement": "total amount of sunitinib eluted", "setting": "[9]; first 65 minutes", "value": "16 mg per 1 mL of PHIL®"}, {"measurement": "sharp increase of sunitinib eluted", "setting": "[9]; within the first 2 minutes", "value": 11, "unit": "mg"}]}
